# Measurements: patent US20160166627A1, “JOINT HEALTH COMPOSITIONS” (NESTEC S.A., priority 2013, published 2016)
# Counter-ions that a name gives are not always drawn.
# System: tumor necrosis factor α (TNF-α)
# Assay: Serum TNF-α (inflammation marker) in ovariectomized rats, Rat TNF-α Platinum ELISA
# Assay type: in vivo, Sprague-Dawley rats
# Conditions: week 12 (end of study), vs OVX group, P<0.05
# Procedure: Ovariectomized (OVX) rats were used as a model to mimic osteoarthritis in healthy postmenopausal women. The effect of fructus corni on suppressing markers of cartilage degeneration, cross linked C-telopeptide of type 2 collagen (CTX-II) and inflammation, tumor necrosis factor α (TNF-α), was examined. Seven month-old female Sprague-Dawley rats were purchased from Beijing Weitong Lihua Laboratory Animal Centre. Surgery was performed by the research team in Shenyang Medical College. The rats were anaesthetized with Hypnorm™/Dormicum™ (1 part Hypnorm™+1 part Dormicum™+2 parts sterile water) given by injection at 0.2 ml/100 g body weight. After anaesthesia the animal was shaved on the back and the skin disinfected. A single incision in the skin was made above the spine, providing access to both ovaries. The muscles were cut to provide access and the ovaries were located and removed by cutting. The muscle on each side was closed with 1-2 stitches, and the skin was closed with 3-4 stitches. […] Rats in group F had free access to distilled water containing 0.5% glucosamine and the amount of water consumed was recorded for each rat. […] CTX-II was measured using the Serum Preclinical Cartilaps ELISA (Nordic Bioscience, Herlev, Denmark). […] Serum TNFα was measured using Rat TNF-α Platinum ELISA (eBioscience, USA) for the serum collected at the end of the study only. […] Data were expressed as means±SD. […]
compound,measurement,value
"N[C@H]1C(O)O[C@H](CO)[C@@H](O)[C@@H]1O (stereo partly shown) [glucosamine, Glucosamine (GS) hydrochloride]","serum TNF-α concentration, increase induced by OVX",not observed
